# Legend:
# [1] = target: Beta-1 adrenergic receptor (Homo sapiens, UniProt P08588); test: GPCRScan assay: inhibition of Beta1; set-up: radioligand conc. used [nm] 0.1 – 0.2, parental cells CHO Flp-In
# [2] = test system: Tyrosine-protein kinase ABL1 (Homo sapiens), P00519 [F317L]; conditions: Compound concentration 1000.0 nM
# [3] = test system: Tyrosine-protein kinase ABL1 (Homo sapiens), P00519 [T315I]; conditions: Compound concentration 1000.0 nM
# [4] = target: RAC-beta serine/threonine-protein kinase (Homo sapiens) (UniProt P31751); conditions: Compound concentration 1000.0 nM
# Chain of RAC-beta serine/threonine-protein kinase (Homo sapiens) (P31751 whole entry): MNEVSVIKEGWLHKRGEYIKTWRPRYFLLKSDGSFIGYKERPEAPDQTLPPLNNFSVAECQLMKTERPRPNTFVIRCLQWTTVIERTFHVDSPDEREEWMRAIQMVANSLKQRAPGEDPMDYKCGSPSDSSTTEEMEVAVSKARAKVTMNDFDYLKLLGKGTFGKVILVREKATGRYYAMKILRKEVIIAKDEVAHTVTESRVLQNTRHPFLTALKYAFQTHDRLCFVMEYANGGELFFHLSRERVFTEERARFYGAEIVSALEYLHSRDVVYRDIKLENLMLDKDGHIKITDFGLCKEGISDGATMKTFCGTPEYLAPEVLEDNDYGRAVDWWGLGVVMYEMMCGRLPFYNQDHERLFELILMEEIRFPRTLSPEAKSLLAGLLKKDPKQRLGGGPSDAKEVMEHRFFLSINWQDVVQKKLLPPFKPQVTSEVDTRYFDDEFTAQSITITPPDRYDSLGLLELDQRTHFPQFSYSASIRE
# [5] = target: Aurora kinase A (Homo sapiens) (UniProt O14965); conditions: Compound concentration 1000.0 nM
# [6] = target: Bone morphogenetic protein receptor type-2 (Homo sapiens) (UniProt Q13873); conditions: Compound concentration 1000.0 nM
# [7] = target: Cytoplasmic tyrosine-protein kinase BMX (Homo sapiens) (UniProt P51813); conditions: Compound concentration 1000.0 nM
# Chain of Cytoplasmic tyrosine-protein kinase BMX (Homo sapiens) (P51813 whole entry): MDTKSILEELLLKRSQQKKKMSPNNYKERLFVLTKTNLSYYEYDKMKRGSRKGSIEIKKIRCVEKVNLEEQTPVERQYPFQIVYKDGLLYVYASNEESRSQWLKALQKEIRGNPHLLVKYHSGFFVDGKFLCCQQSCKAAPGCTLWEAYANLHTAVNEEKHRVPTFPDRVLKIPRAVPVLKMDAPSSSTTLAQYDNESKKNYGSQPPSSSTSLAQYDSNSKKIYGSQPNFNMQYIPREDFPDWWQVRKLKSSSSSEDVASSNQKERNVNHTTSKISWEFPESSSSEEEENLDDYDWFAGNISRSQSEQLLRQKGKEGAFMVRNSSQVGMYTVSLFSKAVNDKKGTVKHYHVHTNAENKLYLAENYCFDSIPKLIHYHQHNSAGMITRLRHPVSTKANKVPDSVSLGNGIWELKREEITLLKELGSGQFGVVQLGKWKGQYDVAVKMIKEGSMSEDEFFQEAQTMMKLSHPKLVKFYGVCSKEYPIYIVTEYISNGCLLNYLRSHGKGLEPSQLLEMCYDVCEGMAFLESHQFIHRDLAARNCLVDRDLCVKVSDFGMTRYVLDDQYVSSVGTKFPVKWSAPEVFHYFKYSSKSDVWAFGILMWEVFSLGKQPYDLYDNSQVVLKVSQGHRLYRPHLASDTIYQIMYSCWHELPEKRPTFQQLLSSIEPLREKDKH
# [8] = target: Protein-tyrosine kinase 6 (Homo sapiens) (UniProt Q13882); conditions: Compound concentration 1000.0 nM
# [9] = target: Cyclin-dependent kinase 7 (Homo sapiens) (UniProt P50613); conditions: Compound concentration 1000.0 nM
# [10] = target: Serine/threonine-protein kinase Chk2 (Homo sapiens) (UniProt O96017); conditions: Compound concentration 1000.0 nM
# Chain of Serine/threonine-protein kinase Chk2 (Homo sapiens) (O96017 whole entry, canonical isoform): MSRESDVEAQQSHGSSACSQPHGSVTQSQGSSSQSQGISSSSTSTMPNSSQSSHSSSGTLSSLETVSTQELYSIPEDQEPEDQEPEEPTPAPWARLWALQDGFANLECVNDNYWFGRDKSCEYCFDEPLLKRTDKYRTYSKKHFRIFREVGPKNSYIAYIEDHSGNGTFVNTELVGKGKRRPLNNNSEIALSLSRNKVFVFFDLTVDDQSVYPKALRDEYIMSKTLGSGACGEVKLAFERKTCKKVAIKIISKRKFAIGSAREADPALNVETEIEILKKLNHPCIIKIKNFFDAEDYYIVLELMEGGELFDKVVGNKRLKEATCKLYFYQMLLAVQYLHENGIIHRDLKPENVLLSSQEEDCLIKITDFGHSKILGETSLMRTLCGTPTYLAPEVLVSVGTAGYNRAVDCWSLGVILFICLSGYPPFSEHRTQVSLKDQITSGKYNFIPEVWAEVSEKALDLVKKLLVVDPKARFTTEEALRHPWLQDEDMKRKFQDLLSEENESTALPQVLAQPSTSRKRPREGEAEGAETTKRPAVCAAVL
# [11] = target: Casein kinase I isoform delta (Homo sapiens) (UniProt P48730); conditions: Compound concentration 1000.0 nM
# [12] = target: Casein kinase II subunit alpha' (Homo sapiens) (UniProt P19784); conditions: Compound concentration 1000.0 nM
# [13] = target: Ephrin type-B receptor 6 (Homo sapiens) (UniProt O15197); conditions: Compound concentration 1000.0 nM
# Chain of Ephrin type-B receptor 6 (Homo sapiens) (O15197 whole entry): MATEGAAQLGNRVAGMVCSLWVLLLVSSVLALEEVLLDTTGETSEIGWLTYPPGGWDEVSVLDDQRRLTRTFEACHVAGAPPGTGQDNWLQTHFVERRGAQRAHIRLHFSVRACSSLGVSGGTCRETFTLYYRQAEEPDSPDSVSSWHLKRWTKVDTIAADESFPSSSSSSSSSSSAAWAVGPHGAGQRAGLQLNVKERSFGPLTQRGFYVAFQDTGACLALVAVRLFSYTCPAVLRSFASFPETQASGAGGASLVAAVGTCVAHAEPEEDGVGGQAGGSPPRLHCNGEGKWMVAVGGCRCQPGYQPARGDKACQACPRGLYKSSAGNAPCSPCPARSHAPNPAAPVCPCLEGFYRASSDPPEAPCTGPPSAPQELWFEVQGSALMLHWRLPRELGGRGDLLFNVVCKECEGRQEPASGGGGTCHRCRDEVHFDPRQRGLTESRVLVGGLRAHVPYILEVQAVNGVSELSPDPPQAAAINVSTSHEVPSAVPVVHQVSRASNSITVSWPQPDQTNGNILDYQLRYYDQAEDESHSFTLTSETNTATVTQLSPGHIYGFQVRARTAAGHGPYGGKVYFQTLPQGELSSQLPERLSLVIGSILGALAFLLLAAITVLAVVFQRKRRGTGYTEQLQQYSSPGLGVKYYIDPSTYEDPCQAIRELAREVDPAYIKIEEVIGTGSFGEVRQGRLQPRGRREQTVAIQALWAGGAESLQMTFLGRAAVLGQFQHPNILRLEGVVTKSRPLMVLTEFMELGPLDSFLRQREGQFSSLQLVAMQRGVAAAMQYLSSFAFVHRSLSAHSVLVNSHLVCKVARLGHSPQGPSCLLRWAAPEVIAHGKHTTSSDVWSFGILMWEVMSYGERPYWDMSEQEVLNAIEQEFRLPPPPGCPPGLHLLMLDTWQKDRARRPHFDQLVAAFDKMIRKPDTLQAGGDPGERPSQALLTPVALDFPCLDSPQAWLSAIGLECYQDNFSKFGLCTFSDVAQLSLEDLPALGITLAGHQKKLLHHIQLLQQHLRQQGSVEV
# [14] = target: Receptor tyrosine-protein kinase erbB-4 (Homo sapiens) (UniProt Q15303); conditions: Compound concentration 1000.0 nM
# [15] = target: Mitogen-activated protein kinase 7 (Homo sapiens) (UniProt Q13164); conditions: Compound concentration 1000.0 nM
# [16] = target: Tyrosine-protein kinase Fer (Homo sapiens) (UniProt P16591); conditions: Compound concentration 1000.0 nM
# [17] = target: Fibroblast growth factor receptor 4 (Homo sapiens) (UniProt P22455); conditions: Compound concentration 1000.0 nM
# [18] = test system: Receptor-type tyrosine-protein kinase FLT3 (Homo sapiens), P36888 [UNDEFINED MUTATION]; conditions: Compound concentration 1000.0 nM
# Chain of Receptor-type tyrosine-protein kinase FLT3 (Homo sapiens), P36888 [UNDEFINED MUTATION] (P36888 whole entry, looked up, change not shown): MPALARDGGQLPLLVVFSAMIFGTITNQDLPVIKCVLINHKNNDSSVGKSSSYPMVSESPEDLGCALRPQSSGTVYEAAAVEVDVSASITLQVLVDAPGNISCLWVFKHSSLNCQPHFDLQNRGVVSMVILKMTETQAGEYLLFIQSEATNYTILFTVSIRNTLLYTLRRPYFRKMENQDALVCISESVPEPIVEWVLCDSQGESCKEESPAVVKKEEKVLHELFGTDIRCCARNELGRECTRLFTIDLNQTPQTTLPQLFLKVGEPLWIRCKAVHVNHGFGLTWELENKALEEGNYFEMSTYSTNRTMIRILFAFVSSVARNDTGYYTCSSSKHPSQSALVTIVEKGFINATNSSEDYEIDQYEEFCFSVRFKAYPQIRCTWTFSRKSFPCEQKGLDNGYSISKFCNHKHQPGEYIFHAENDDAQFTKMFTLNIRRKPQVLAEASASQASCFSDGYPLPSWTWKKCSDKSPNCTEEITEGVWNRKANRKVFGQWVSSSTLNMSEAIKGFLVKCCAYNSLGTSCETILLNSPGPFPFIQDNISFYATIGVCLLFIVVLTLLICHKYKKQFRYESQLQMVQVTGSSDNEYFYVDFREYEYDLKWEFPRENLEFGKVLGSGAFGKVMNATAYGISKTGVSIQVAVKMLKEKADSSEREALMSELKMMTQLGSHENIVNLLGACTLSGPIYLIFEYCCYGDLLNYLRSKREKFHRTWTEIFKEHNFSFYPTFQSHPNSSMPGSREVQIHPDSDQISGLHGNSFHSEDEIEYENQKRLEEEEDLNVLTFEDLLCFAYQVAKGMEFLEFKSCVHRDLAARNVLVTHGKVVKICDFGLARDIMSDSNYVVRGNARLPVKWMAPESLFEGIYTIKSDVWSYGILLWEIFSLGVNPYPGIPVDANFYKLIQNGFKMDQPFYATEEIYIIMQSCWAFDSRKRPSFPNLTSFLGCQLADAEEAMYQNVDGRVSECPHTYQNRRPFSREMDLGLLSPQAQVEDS
# [19] = test system: Receptor-type tyrosine-protein kinase FLT3 (Homo sapiens), P36888 [UNDEFINED MUTATION]; conditions: Compound concentration 1000.0 nM; remark: listed apart in the source
# [20] = target: Tyrosine-protein kinase FRK (Homo sapiens) (UniProt P42685); conditions: Compound concentration 1000.0 nM
# Chain of Tyrosine-protein kinase FRK (Homo sapiens) (P42685 whole entry): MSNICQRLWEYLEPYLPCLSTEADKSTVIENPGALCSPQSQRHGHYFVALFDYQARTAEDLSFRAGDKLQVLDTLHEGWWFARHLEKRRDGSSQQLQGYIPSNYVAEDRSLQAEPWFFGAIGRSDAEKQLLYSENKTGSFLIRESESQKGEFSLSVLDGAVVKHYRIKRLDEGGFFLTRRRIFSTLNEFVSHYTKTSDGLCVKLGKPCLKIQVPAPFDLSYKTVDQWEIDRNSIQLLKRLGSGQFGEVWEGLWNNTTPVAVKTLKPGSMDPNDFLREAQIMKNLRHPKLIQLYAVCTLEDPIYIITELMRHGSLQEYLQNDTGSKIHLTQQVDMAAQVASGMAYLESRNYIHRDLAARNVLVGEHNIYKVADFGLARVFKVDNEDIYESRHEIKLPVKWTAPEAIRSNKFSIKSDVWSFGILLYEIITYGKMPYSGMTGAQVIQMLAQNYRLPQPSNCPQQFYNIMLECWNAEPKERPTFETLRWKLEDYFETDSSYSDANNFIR
# [21] = test system: eIF-2-alpha kinase GCN2 (Homo sapiens), Q9P2K8 [S808G]; conditions: Compound concentration 1000.0 nM
# [22] = target: Homeodomain-interacting protein kinase 2 (Homo sapiens) (UniProt Q9H2X6); conditions: Compound concentration 1000.0 nM
# [23] = target: Insulin-like growth factor 1 receptor (Homo sapiens) (UniProt P08069); conditions: Compound concentration 1000.0 nM
# [24] = target: Tyrosine-protein kinase JAK2 (Homo sapiens) (UniProt O60674); conditions: Compound concentration 1000.0 nM
# [25] = test system: Mast/stem cell growth factor receptor Kit (Homo sapiens), P10721 [L576P]; conditions: Compound concentration 1000.0 nM
# [26] = test system: Mast/stem cell growth factor receptor Kit (Homo sapiens), P10721 [V559D,V654A]; conditions: Compound concentration 1000.0 nM
# [27] = target: Tyrosine-protein kinase Lyn (Homo sapiens) (UniProt P07948); conditions: Compound concentration 1000.0 nM
# [28] = target: Mitogen-activated protein kinase kinase kinase 3 (Homo sapiens) (UniProt Q99759); conditions: Compound concentration 1000.0 nM
# [29] = target: Serine/threonine-protein kinase MARK2 (Homo sapiens) (UniProt Q7KZI7); conditions: Compound concentration 1000.0 nM
# [30] = target: Dual specificity mitogen-activated protein kinase kinase 2 (Homo sapiens) (UniProt P36507); conditions: Compound concentration 1000.0 nM
# [31] = test system: Hepatocyte growth factor receptor (Homo sapiens), P08581 [Y1235D]; conditions: Compound concentration 1000.0 nM
# [32] = target: Serine/threonine-protein kinase Nek11 (Homo sapiens) (UniProt Q8NG66); conditions: Compound concentration 1000.0 nM
# [33] = target: Serine/threonine-protein kinase Nek3 (Homo sapiens) (UniProt P51956); conditions: Compound concentration 1000.0 nM
# [34] = target: Serine/threonine-protein kinase Nek5 (Homo sapiens) (UniProt Q6P3R8); conditions: Compound concentration 1000.0 nM
# [35] = target: Serine/threonine-protein kinase PAK 6 (Homo sapiens) (UniProt Q9NQU5); conditions: Compound concentration 1000.0 nM
# [36] = test system: Phosphatidylinositol 4,5-bisphosphate 3-kinase catalytic subunit alpha isoform (Homo sapiens), P42336 [E545A]; conditions: Compound concentration 1000.0 nM
# [37] = test system: Phosphatidylinositol 4,5-bisphosphate 3-kinase catalytic subunit alpha isoform (Homo sapiens), P42336 [M1043I]; conditions: Compound concentration 1000.0 nM
# [38] = target: Phosphatidylinositol 4,5-bisphosphate 3-kinase catalytic subunit delta isoform (Homo sapiens) (UniProt O00329); conditions: Compound concentration 1000.0 nM
# [39] = target: Serine/threonine-protein kinase pim-1 (Homo sapiens) (UniProt P11309); conditions: Compound concentration 1000.0 nM
# Chain of Serine/threonine-protein kinase pim-1 (Homo sapiens) (P11309 whole entry, looked up): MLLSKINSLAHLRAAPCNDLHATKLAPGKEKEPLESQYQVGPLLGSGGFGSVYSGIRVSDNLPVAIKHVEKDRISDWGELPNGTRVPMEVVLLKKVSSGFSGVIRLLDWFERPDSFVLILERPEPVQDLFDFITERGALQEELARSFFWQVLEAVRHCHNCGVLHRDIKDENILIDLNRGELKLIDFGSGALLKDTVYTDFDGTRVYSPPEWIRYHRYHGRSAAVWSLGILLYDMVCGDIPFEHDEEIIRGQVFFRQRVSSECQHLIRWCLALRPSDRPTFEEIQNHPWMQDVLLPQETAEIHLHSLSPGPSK
# [40] = target: SRSF protein kinase 2 (Homo sapiens) (UniProt P78362); conditions: Compound concentration 1000.0 nM
# [41] = target: Tyrosine-protein kinase receptor TYRO3 (Homo sapiens) (UniProt Q06418); conditions: Compound concentration 1000.0 nM
# [42] = target: Wee1-like protein kinase (Homo sapiens) (UniProt P30291); conditions: Compound concentration 1000.0 nM
# [43] = target: 5-hydroxytryptamine receptor 2A (Homo sapiens) (UniProt P28223); conditions: Compound concentration 10.0 uM
# [44] = target: D(2) dopamine receptor (Homo sapiens) (UniProt P14416); conditions: Compound concentration 10.0 uM
# Chain of Beta-1 adrenergic receptor (P08588 whole entry): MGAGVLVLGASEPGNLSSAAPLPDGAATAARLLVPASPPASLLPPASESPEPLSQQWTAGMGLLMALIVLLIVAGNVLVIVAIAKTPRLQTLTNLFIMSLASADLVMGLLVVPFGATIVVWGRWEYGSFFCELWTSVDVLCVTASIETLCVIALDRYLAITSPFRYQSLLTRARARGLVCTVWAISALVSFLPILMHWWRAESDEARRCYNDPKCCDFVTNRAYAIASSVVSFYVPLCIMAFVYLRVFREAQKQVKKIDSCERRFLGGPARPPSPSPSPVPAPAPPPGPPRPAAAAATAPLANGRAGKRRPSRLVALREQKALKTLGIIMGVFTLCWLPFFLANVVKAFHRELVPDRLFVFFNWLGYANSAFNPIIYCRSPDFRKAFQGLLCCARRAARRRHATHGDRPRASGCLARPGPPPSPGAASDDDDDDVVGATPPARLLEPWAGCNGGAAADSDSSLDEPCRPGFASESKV
smiles,measurement,setting,value
CC(=O)C1=C(C)N(c2cccc(C(F)(F)F)c2)C(=O)N[C@@H]1c1ccc(C#N)nc1 [BAY-678],Ki,[1]; read-out: Ki,5.45 µM
same,Ki,[1]; read-out: pKi (converted),5.01 µM
same,residual activity,[2],97.1%
same,residual activity,[3],100%
same,residual activity,[4],100%
same,residual activity,[5],83.9%
same,residual activity,[6],100%
same,residual activity,[7],97.4%
same,residual activity,[8],100%
same,residual activity,[9],90.6%
same,residual activity,[10],85.6%
same,residual activity,[11],100%
same,residual activity,[12],75.7%
same,residual activity,[13],85%
same,residual activity,[14],90.8%
same,residual activity,[15],100%
same,residual activity,[16],96.9%
same,residual activity,[17],100%
same,residual activity,[18],61.2%
same,residual activity,[19],100%
same,residual activity,[20],100%
same,residual activity,[21],56.9%
same,residual activity,[22],94.3%
same,residual activity,[23],100%
same,residual activity,[24],87.1%
same,residual activity,[25],100%
same,residual activity,[26],100%
same,residual activity,[27],100%
same,residual activity,[28],100%
same,residual activity,[29],100%
same,residual activity,[30],84.2%
same,residual activity,[31],100%
same,residual activity,[32],100%
same,residual activity,[33],72%
same,residual activity,[34],80.6%
same,residual activity,[35],92.7%
same,residual activity,[36],75.6%
same,residual activity,[37],100%
same,residual activity,[38],89.8%
same,residual activity,[39],100%
same,residual activity,[40],100%
same,residual activity,[41],66.9%
same,residual activity,[42],100%
same,inhibition,[43],-0.427%
same,inhibition,[44],0.569%

# Source: ChEMBL document CHEMBL4507272 (2021)
